Patent publication US20260199438A1, “METHOD AND TREATMENT FOR DIABETES IN DOGS” (THE ROYAL VETERINARY COLLEGE, priority 2022, published 2026)
Read-outs that look alike come from different tables or passages of the source.

Columns and labels:
[1] = target: T1, wild-type (WT) KATP channels (Kir6.2/SUR1) (Homo sapiens, UniProt Q09428+Q14654); test: Two-electrode voltage-clamp whole-cell currents in Xenopus oocytes, wild-type channel; format: cell-based
[2] = target: T1, wild-type (WT) KATP channels (Kir6.2/SUR1)

T1 sequence (Q14654 whole entry): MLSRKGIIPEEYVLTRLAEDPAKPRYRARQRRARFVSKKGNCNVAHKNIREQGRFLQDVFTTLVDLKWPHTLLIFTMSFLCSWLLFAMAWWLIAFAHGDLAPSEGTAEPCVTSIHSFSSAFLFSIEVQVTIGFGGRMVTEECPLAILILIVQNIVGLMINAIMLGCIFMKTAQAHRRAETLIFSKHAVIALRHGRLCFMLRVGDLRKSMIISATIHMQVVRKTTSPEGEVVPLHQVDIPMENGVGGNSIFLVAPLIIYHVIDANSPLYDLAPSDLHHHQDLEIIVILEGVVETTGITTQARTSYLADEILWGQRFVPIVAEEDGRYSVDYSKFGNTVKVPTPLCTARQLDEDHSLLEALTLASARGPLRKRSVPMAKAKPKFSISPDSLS
T1 sequence (Q09428 whole entry): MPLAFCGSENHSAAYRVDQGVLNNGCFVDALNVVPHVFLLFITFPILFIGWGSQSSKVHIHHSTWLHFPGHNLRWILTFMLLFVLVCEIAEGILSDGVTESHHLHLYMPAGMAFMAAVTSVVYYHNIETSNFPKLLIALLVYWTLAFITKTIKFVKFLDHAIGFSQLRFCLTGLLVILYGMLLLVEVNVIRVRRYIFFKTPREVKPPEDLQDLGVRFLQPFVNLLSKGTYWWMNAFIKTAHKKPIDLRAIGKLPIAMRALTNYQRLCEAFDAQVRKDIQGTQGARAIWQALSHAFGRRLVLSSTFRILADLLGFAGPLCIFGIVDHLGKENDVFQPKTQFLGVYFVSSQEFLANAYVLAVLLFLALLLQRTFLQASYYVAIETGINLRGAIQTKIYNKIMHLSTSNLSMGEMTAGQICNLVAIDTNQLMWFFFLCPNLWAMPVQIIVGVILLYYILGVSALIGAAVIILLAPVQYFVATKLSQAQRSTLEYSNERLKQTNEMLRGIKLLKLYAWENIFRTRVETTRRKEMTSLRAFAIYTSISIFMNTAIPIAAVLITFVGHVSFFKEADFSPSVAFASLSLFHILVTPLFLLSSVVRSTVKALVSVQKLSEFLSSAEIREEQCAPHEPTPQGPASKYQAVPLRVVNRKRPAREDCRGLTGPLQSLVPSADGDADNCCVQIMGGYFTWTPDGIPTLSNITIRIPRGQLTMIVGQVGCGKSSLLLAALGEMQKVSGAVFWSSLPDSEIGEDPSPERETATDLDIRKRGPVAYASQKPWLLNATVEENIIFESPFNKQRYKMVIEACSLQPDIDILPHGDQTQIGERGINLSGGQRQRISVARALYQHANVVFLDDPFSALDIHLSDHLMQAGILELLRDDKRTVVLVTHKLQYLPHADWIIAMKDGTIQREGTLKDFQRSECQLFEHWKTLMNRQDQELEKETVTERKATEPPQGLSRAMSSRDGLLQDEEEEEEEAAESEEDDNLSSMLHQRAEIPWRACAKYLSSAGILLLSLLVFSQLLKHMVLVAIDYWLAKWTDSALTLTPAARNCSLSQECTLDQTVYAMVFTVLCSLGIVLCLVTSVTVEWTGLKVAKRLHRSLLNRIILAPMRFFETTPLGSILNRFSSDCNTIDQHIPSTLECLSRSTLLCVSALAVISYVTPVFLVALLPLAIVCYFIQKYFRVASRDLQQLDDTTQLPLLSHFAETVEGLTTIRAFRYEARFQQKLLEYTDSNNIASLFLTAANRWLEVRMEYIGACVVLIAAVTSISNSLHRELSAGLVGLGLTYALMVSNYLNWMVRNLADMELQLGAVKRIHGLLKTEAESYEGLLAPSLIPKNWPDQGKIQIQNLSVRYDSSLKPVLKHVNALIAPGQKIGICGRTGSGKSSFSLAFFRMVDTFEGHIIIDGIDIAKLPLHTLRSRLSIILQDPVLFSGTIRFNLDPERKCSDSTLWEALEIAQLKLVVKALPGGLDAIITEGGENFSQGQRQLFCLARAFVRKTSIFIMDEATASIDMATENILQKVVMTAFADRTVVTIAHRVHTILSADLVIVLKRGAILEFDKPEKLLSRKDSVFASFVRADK

SMILES: CCCCNC(=O)NS(=O)(=O)c1ccc(C)cc1 [tolbutamide]
- tolbutamide block, percentage block of the azide-induced current ([1]; WT channels, 0.5 mM tolbutamide after 3 mM Na-azide): > 95%

SMILES: Nc1ncnc2c1ncn2[C@@H]1O[C@H](COP(=O)(O)OP(=O)(O)OP(=O)(O)O)[C@@H](O)[C@H]1O [ATP, adenosine triphosphate]
- Hill coefficient h, fits to individual dose-response relationships (mean±SEM) ([2]; absence of Mg2+): 1.24±0.05
- Hill coefficient h, fit to the mean data ([2]; presence of Mg2+): 1.1
- Hill coefficient h, fits to individual dose-response relationships (mean±SEM) ([2]; presence of Mg2+): 1.12±0.04

SMILES: [N-]=[N+]=[N-].[Na+] [Na-azide]
- activation of whole-cell currents by the metabolic inhibitor ([1]; WT, 3 mM Na-azide): activated
